Measured values reported in patent US11350632B2, “Methods, compositions and systems for killing arthropods” (Imerys USA, Inc., priority 2016, dated 2022).

What was measured:
Assay in all cases: Field trial weekly bioassay on pre-treated substrate
Assay type in all cases: in vivo
Aedes aegypti = tested on: Aedes aegypti; parameters: mortality found (summary of field trial): concentration or dose not given beside the values
Experimental: (§1) During a field trial in New Orleans, bioassays were performed with (1) the expanded, milled ultrafine perlite of Example 1, (2) a lambda-cyhalothrin insecticide (BASF) as positive control, and (3) a negative control (water only). Six samples of each insecticide (1) and (2) and the control (3) were tested against mosquito species Aedes aegypti (dengue and zika vector), Aedes albopictus (tiger mosquito), and Culex quinquefasciatus (nuisance mosquito) by spraying wood chips stored under houses using a STIHL SR 200 backpack sprayer (18 houses total). The houses were selected based on housing structure (raised house), backyard vegetation (green and lush), and location (suburban neighborhood).
(§2) The lambda cyhalothrin (industry standard insecticide) was prepared according to manufacturer instructions. Lambda cyhalothrin insecticide was diluted with water for spray application. First the application tank was filled with one-half to three-fourths volume of water. The pH of the water was controlled between 5 and 7 using a buffering agent if necessary to adjust the pH. Next, lambda cyhalothrin insecticide was slowly added to the applicator tank water with maximum agitation. Finally, the tank was filled to the desired volume with continuous agitation while applying the spray. To prepare the perlite insecticide spraying solutions, two-thirds of a gallon of water, 0.32 ounces of non-ionic surfactant (Ninex MT615), and 2 lbs expanded, milled ultrafine perlite were thoroughly blended together in a spray tank. Another one-third gallon of water was then added for a total 1 gallon of spray solution containing 20% of ultrafine perlite mechanical insecticide, 79% of water and 1% of Ninex MT615 as dispersant. The ultrafine perlite solution was mixed directly prior to spraying.
(§3) The ultrafine perlite insecticide, the positive control (lambda cyhalothrin) and the negative control (water) were sprayed directly under the raised houses and porches (which included eaves if reachable) and under vegetation with an applicator. Pre-treated substrates were also prepared for each location by applying the corresponding insecticide or control to a piece of pine. The target coverage was 5-8 ounces per 100 ft^2, with an average coverage of about 10 g/m^2 to 15 g/m^2.
(§4) Adult mosquitos for each species were introduced to each location, and were identified and counted two weeks prior to the start of the bioassays. Weekly bioassays were performed to test the efficacy of the insecticides over time by collecting a pre-treated substrate from each site and placing ˜10 female mosquitos of the corresponding species into a labeled bioassay cup with the substrate. The cup was then placed in a growth chamber/counter (depending on temperature) for 1 hour and then 24 hours with sugar solution. The number of dead and live mosquitos was recorded and compared to determine the percent mortality. Results are shown in Tables 8-10, in which 100% indicates complete mortality of mosquitoes and 0% indicates zero mortality (no mosquito deaths).

Aedes albopictus = tested on: Aedes albopictus; parameters: concentration or dose not given beside the values
Experimental: as §1, §2, §3, §4

Culex quinquefasciatus = tested on: Culex quinquefasciatus; parameters: concentration or dose not given beside the values
Experimental: as §1, §2, §3, §4

[1] = Week 0, ~10 female mosquitos with pre-treated substrate
[2] = week not stated, each mosquito species

For `CC1(C)[C@H](C(=O)O[C@H](C#N)c2cccc(Oc3ccccc3)c2)[C@@H]1/C=C(\Cl)C(F)(F)F` (racemic) [Lambda cyhalothrin, lambda-cyhalothrin], the “Mortality (%) of Andes aegypti” value (Aedes aegypti; [1]) was 0%, the “Mortality (%) of Andes aegypti” value (Aedes aegypti; Week 1) was 0% and the “Mortality (%) of Andes aegypti” value (Aedes aegypti; Week 2) was 100%. The “Mortality (%) of Andes aegypti” value (Aedes aegypti; Week 3) was 100%, the “Mortality (%) of Andes aegypti” value (Aedes aegypti; Week 4) was 100% and the “Mortality (%) of Andes aegypti” value (Aedes aegypti; Week 5 (heavy rainfall)) was 100%. For the same molecule, the “Mortality (%) of Andes aegypti” value (Aedes aegypti; Week 6) was 100%, the “Mortality (%) of Andes aegypti” value (Aedes aegypti; Week 7) was 100% and the “Mortality (%) of Andes aegypti” value (Aedes aegypti; Week 8) was 100%. The “mortality found (summary of field trial)” value (Aedes aegypti; [2]) was 100%, the “Mortality (%) of Andes albopictus” value (Aedes albopictus; [1]) was 0% and the “Mortality (%) of Andes albopictus” value (Aedes albopictus; Week 1) was 0%. The “Mortality (%) of Andes albopictus” value (Aedes albopictus; Week 2) was 100%, the “Mortality (%) of Andes albopictus” value (Aedes albopictus; Week 3) was 100% and the “Mortality (%) of Andes albopictus” value (Aedes albopictus; Week 4) was 100%. For the same molecule, the “Mortality (%) of Andes albopictus” value (Aedes albopictus; Week 5 (heavy rainfall)) was 100%, the “Mortality (%) of Andes albopictus” value (Aedes albopictus; Week 6) was 100% and the “Mortality (%) of Andes albopictus” value (Aedes albopictus; Week 7) was 100%. For the same molecule, the “Mortality (%) of Andes albopictus” value (Aedes albopictus; Week 8) was 100%, the “mortality found (summary of field trial)” value (Aedes albopictus; [2]) was 100% and the “Mortality (%) of Culex quinquefasciatus” value (Culex quinquefasciatus; [1]) was 0%. The “Mortality (%) of Culex quinquefasciatus” value (Culex quinquefasciatus; Week 1) was 0%, the “Mortality (%) of Culex quinquefasciatus” value (Culex quinquefasciatus; Week 2) was 100% and the “Mortality (%) of Culex quinquefasciatus” value (Culex quinquefasciatus; Week 3) was 100%. For the same molecule, the “Mortality (%) of Culex quinquefasciatus” value (Culex quinquefasciatus; Week 4) was 97%, the “Mortality (%) of Culex quinquefasciatus” value (Culex quinquefasciatus; Week 5 (heavy rainfall)) was 100% and the “Mortality (%) of Culex quinquefasciatus” value (Culex quinquefasciatus; Week 6) was 93%. The “Mortality (%) of Culex quinquefasciatus” value (Culex quinquefasciatus; Week 7) was 100%, the “Mortality (%) of Culex quinquefasciatus” value (Culex quinquefasciatus; Week 8) was 100% and the “mortality found (summary of field trial)” value (Culex quinquefasciatus; [2]) was 100%.
